These results are taken from PMC9291951 (British Journal of Pharmacology, 2020).

In test [1] the target is human TRPV4 wild-type (hTRPV4-WT) (Homo sapiens, UniProt Q9HBA0). Nature of the test: Ca2+ imaging. In kind it is cell-based. The note with it: HeLa cells.
Another test deals with hTRPV4-D546A (Homo sapiens, UniProt Q9HBA0, D546A). Nature of the test: Ca2+ imaging. Type of test: cell-based. The note with it: for Blocking effect in mutant versus wild-type channel: D546A.
A further test has as its target hTRPV4-Y591H (Homo sapiens, UniProt Q9HBA0, Y591H). Nature of the test: Ca2+ imaging. In kind it is cell-based.
Another test addresses hTRPV4-Y591A (Homo sapiens, UniProt Q9HBA0, Y591A). As to the kind of experiment: Ca2+ imaging. In kind it is cell-based.
The next test concerns TRPV4. The conditions noted are these: read-out: IC50 (antagonist); ref Cheung et al., 2017; cited from earlier work.

Sequence of hTRPV4-D546A (Q9HBA0 whole entry D546A): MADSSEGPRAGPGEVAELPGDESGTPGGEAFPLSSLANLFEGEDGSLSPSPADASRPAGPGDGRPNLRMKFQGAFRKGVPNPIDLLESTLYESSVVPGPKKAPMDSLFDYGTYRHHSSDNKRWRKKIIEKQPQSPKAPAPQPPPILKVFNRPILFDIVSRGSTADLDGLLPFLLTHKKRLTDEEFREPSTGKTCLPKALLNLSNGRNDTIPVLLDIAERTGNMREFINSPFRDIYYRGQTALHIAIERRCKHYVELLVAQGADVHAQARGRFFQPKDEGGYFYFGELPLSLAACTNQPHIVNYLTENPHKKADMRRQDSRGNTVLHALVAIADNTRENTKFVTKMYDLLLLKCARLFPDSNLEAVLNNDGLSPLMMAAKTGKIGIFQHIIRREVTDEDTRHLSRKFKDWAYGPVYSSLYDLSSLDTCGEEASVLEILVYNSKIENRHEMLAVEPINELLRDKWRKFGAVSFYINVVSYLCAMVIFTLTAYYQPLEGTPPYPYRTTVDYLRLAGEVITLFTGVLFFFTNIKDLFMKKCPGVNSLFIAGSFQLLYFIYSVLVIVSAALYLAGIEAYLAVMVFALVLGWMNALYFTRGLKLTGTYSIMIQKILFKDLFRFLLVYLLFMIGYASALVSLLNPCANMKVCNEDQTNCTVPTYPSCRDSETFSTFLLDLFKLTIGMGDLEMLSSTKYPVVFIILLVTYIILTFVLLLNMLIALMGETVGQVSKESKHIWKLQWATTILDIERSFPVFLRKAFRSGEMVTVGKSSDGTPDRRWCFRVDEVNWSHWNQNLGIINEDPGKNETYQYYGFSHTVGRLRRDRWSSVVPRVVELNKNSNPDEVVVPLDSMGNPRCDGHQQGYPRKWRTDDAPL
Sequence of hTRPV4-Y591H (Q9HBA0 whole entry Y591H): as the sequence (Q9HBA0 whole entry D546A) above, with A546D, Y591H counted along it
Sequence of hTRPV4-Y591A (Q9HBA0 whole entry Y591A): as the sequence (Q9HBA0 whole entry D546A) above, with A546D, Y591A counted along it
Sequence of human TRPV4 wild-type (hTRPV4-WT) (Q9HBA0 whole entry): as the sequence (Q9HBA0 whole entry D546A) above, with A546D counted along it

On to `CC(C)C[C@H](NC(=O)c1cc2ccccc2s1)C(=O)N1CCN(C(=O)[C@H](CO)NS(=O)(=O)c2ccc(Cl)cc2Cl)CC1` [GSK1016790A, N‐((1S)‐1‐{[4‐((2S)‐2‐{[(2,4‐Dichlorophenyl)sulfonyl]amino}‐3‐hydroxypropanoyl)‐1‐piperazinyl]carbonyl}‐3‐methylbutyl)‐1‐benzothiophene‐2‐carboxamide], for which the “Channel activation by agonist” value in test [1] is recorded as “activated”; at hTRPV4-D546A (TRPV4-D546A, HeLa cells, Ca2+ imaging), “activated”. In addition, the “Channel response to agonist” value at hTRPV4-Y591H (hTRPV4-Y591H, 1-nM GSK1016790A) is recorded as “Neither hTRPV4‐Y591A nor hTRPV4‐Y591H responded”; on hTRPV4-Y591A (hTRPV4-Y591A, 1-nM GSK1016790A), “Neither hTRPV4‐Y591A nor hTRPV4‐Y591H responded”.

For orientation: IC50 means the concentration that gives 50% inhibition. Turning to `CC(C)(O)c1cnc(N2C[C@@]3(CCC[C@](C)(Cn4cnc5ccc(C#N)cc54)C3)OC2=O)cn1` [GSK2798745], the IC50 in the test with TRPV4 was 16 nM.

For `N.N.N.N.N.N.N.N.N.N.N.N.N.N.[Cl-].[Cl-].[Cl-].[Cl-].[Cl-].[Cl-].[O-2].[O-2].[Ru+3].[Ru+3].[Ru+4]` [ruthenium red], the “Blocking effect in mutant versus wild-type channel” value is “not affected” on hTRPV4-D546A (1-nM GSK1016790A, ruthenium red 10 nM to 10 μM); “not affected” at hTRPV4-D546A (30% hypotonic solution, 1-μM ruthenium red); “not affected” at hTRPV4-Y591H (Y591H, 30% hypotonic solution, 1-μM ruthenium red); “not affected” at hTRPV4-Y591A (Y591A, 30% hypotonic solution, 1-μM ruthenium red).
